Measurements as given in ChEMBL document CHEMBL3797042, “Hybrid Pyrrole-Imidazole Alkaloids from the Sponge Agelas sceptrum” (J Nat Prod, 2016).
In brackets after ≈: the same amount, converted by molar mass. Activity calls are given as the source filed them. The rule behind the calls is not given here.

Legend:
Pseudomonas aeruginosa = assay: Antimicrobial activity against Pseudomonas aeruginosa after 24 hrs by microdilution method; type: functional, organism-based
MCF7 = assay: Cytotoxicity against human MCF7 cells after 5 days by WST-1 assay; type: functional, cell-based
[1] = Cytotoxicity against human FS4-LTM cells after 24 hrs by WST-1 assay; type: cell-based; details: for IC90: human, 24 h
Staphylococcus aureus [2] = assay: Antimicrobial activity against methicillin-sensitive Staphylococcus aureus after 24 hrs by microdilution method; type: functional, organism-based
KB 3-1 = assay: (§1) Cytotoxicity against human KB3-1 cells after 5 days by WST-1 assay; type: functional, cell-based
[3] = as §1; type: functional, cell-based, KB 3-1
Klebsiella pneumoniae = assay: Antimicrobial activity against Klebsiella pneumoniae after 24 hrs by microdilution method; type: functional
Micrococcus luteus = assay: Antimicrobial activity against Micrococcus luteus after 24 hrs by microdilution method; type: functional
L929 = assay: (§2) Cytotoxicity against mouse L929 cells after 5 days by WST-1 assay; type: cell-based; details: for IC90: mouse, l929, 120 h
Candida albicans = assay: Antimicrobial activity against Candida albicans after 24 hrs by microdilution method; type: functional, organism-based
Staphylococcus aureus [4] = assay: Antimicrobial activity against methicillin-resistant Staphylococcus aureus after 24 hrs by microdilution method; type: functional, organism-based
[5] = as §2; type: cell-based; details: mouse, L929 cells
[6] = Homo sapiens, KB 3-1, 120 h, read-out: IC50

Compound | MIC (Pseudomonas aeruginosa) | IC90 (MCF7) | IC50 (MCF7; mcf7) | IC50 [1] | IC90 [1] | MIC (Staphylococcus aureus [2]) | IC90 (KB 3-1) | IC50 ([3]; kb 3-1) | MIC (Klebsiella pneumoniae) | MIC (Micrococcus luteus) | IC50 (L929; l929) | IC90 (L929) | MIC (Candida albicans) | MIC (Staphylococcus aureus [4]) | IC90 ([3]; Homo sapiens, KB 3-1, 120 h) [µM] | IC50 [3, 6] [µM] | IC90 (MCF7; Homo sapiens, MCF7, 120 h) [µM] | IC50 (MCF7; Homo sapiens, MCF7, 120 h, read-out: IC50) [µM] | IC50 (L929; Mus musculus, L929, 120 h, read-out: IC50) [µM] | IC90 at 120 h [5] [µM]
Nc1ncc(/C=C/CNC(=O)c2cc(Br)c(Br)[nH]2)[nH]1 [OROIDIN] | inactive | inactive | Not Active | Not Active | Not Active | inactive | inactive | Not Active | inactive | inactive | Not Active | Not Active | inactive | inactive |  |  |  |  |  | 
Nc1ncc([C@@H]2[C@@H](CNC(=O)c3ccc[nH]3)[C@H](CNC(=O)c3cc(Br)c[nH]3)[C@H]2c2cnc(N)[nH]2)[nH]1 | inactive | inactive | Not Active | Not Active | Not Active | inactive |  |  | inactive | inactive | Not Active | Not Active | inactive | inactive | 92 | 29 |  |  |  | 
NCCC(=O)c1cccc2c1N[C@H](CNC(=O)c1cc(Br)c(Br)[nH]1)[C@@H](c1cnc(N)[nH]1)O2 | inactive | inactive | Not Active | Not Active | Not Active | inactive |  |  | inactive | inactive | Not Active | Not Active | inactive | inactive | ≥ 130 | 44 |  |  |  | 
Nc1ncc([C@@H]2[C@@H](CNC(=O)c3cc(Br)c[nH]3)[C@H](CNC(=O)c3cc(Br)c[nH]3)[C@H]2c2cnc(N)[nH]2)[nH]1 | inactive |  |  | Not Active | Not Active | inactive |  |  | 32 µM (≈ 19.8 µg/mL) | 32 µM (≈ 19.8 µg/mL) |  |  | inactive | inactive | 2390 | 80 | ≥ 238 | 238 | 193 | ≥ 238
C[n+]1cnc2[nH]c(=O)n(-c3nc(N)[nH]c3[C@@H]3[C@@H](CNC(=O)c4cc(Br)c[nH]4)[C@H](CNC(=O)c4cc(Br)c[nH]4)[C@H]3c3cnc(N)[nH]3)c2c1N | inactive | inactive | Not Active | Not Active | Not Active | inactive | inactive | Not Active | inactive | inactive | Not Active | Not Active | inactive | inactive |  |  |  |  |  | 
